Measurements from patent US10420770B2, “Compositions and methods for treating dementia” (EIP Pharma, LLC, priority 2016, dated 2019).
Values joined by “and” are separate entries in the source; they are usually repeats but may differ in a detail not shown here. Identical values can stand only once.

What was measured:
Assay type in all cases: in vivo, human
amyloid plaque load = assay: Quantitative dynamic [11C]PiB PET amyloid scanning (RPM2-BPND), 12-week study; conditions: for Number of Responders/Total Number in Population, PET metric Cingulate Posterior / Number of Responders/Total Number in Population, PET metric Frontal / Number of Responders/Total Number in Population, PET metric Global / Number of Responders/Total Number in Population, PET metric Med Temp Lobe / Number of Responders/Total Number in Population, PET metric Parietal / Number of Responders/Total Number in Population, PET metric Temporal: responder = reduction of ≥7% in RPM2-BPND
Procedure: Dosing started on Day 1 following completion of all baseline procedures. During the treatment period, subjects returned to the clinic on Days 14, 28, 56, and 84. […] Dynamic PET scanning with fill quantitative analysis was performed at baseline and at the end of treatment.
Target engagement was assessed through the use of an AD-related biomarker. The primary endpoint was based on assessment of amyloid plaque burden using quantitative dynamic PET amyloid scanning (Tolboom, N. et al. “Test-retest variability of quantitative [^11C]PIB studies in Alzheimer's disease.” Eur. J. Nucl. Med. Mol. Imaging 36(10): 1629-1638 (2009)). The method of van Berckel et al (van Berckel B N, R. Ossenkoppele, et al. “Longitudinal amyloid imaging using ^11CPiB: Methodologic considerations.” J. Nucl. Med. 5=1; 1570-1576 (2013)) was followed, in which dynamic emission scanning consists of 23 frames with progressive increases in frame duration (1·15, 3·5, 3·10, 2·30, 3·60, 2·150, 2·300, and 7·600 s) for a total scan duration of 90 min; and subsequently full quantitative data analysis of the images was performed by reference parametric mapping (RPM2) using cerebellum as reference tissue. This methodology allowed for a more reliable (i.e. less variable) assessment of brain amyloid plaque load than standard amyloid PET imaging. In addition this method of measuring amyloid burden has high scan-to-scan stability (˜2-3% test-test variability) within subjects. No placebo group was enrolled. Instead, reductions in brain amyloid plaque load of greater than 7%, which is definitively outside the range of test-test variability, were considered to be a drug effect in this study.

[1] = test system: amyloid-beta peptides (Aβ 38/40/42); assay: CSF amyloid-beta peptides, 6-week study; conditions: baseline to Day 41; p=0.01 to p=0.047
Procedure: Effects on CSF levels of Aβ peptides were evaluated as measures of the amyloidenic process, which is activated with aging and more so in patients with Alzheimer's disease.
Target engagement was assessed through the evaluation of the effect of drug treatment on CSF biomarkers. CSF was collected at 6 time-points over 24 hours at baseline (the 24 hours prior to first dose) and again at 6 time-points over 24 hours near the end of treatment on Day 40. The samples were evaluated by the Mesoscale Discovery ELISA platform for multiple cytokines ((IFN-γ, IL-1β, IL-2, IL-4, IL-5, IL-8, IL-12 protein 70, IL-13, TNFα, and CSF) and for amyloid-beta peptides (Aβ 38/40/42).

butylcholinesterase = assay: CSF butylcholinesterase, 6-week study; conditions: baseline to day 40
synaptic function = assay: Quantitative EEG, 6-week study
Procedure: Quantitative EEG was conducted as a measure of the effects of inflammatory cytokines on synaptic function and the effects of modulation of p38 MAPK on synaptic plasticity. Brain fluorodeoxyglucose (FDG) PET scan was conducted at the Screening Visit and Day 40 to measure brain metabolism. In addition, CSF drug levels of VX-745 were obtained to confirm delivery of drug to the brain.

O=c1ncn2nc(Sc3ccc(F)cc3F)ccc2c1-c1c(Cl)cccc1Cl [VX-745]
subjects between 3 and 7% (% change RPM2_BPND) (amyloid plaque load; 40 mg): 2 | subjects who reached the 7% responder criterion (% change RPM2_BPND) (amyloid plaque load; 40 mg): 3 | Number of Responders/Total Number in Population, PET metric Cingulate Posterior (amyloid plaque load; 40 mg twice daily 12 weeks): 2/8 | Number of Responders/Total Number in Population, PET metric Frontal (amyloid plaque load; 40 mg twice daily 12 weeks): 3/8 | Number of Responders/Total Number in Population, PET metric Global (amyloid plaque load; 40 mg twice daily 12 weeks): 3/8 | Number of Responders/Total Number in Population, PET metric Med Temp Lobe (amyloid plaque load; 40 mg twice daily 12 weeks): 4/8 | Number of Responders/Total Number in Population, PET metric Parietal (amyloid plaque load; 40 mg twice daily 12 weeks): 3/8 | Number of Responders/Total Number in Population, PET metric Temporal (amyloid plaque load; 40 mg twice daily 12 weeks): 2/8 | Number of Responders/Total Number in Population, PET metric Cingulate Posterior (amyloid plaque load; 125 mg twice daily 12 weeks): 0/7 | Number of Responders/Total Number in Population, PET metric Frontal (amyloid plaque load; 125 mg twice daily 12 weeks): 1/7 | Number of Responders/Total Number in Population, PET metric Global (amyloid plaque load; 125 mg twice daily 12 weeks): 1/7 | Number of Responders/Total Number in Population, PET metric Med Temp Lobe (amyloid plaque load; 125 mg twice daily 12 weeks): 2/7 | Number of Responders/Total Number in Population, PET metric Parietal (amyloid plaque load; 125 mg twice daily 12 weeks): 0/7 | Number of Responders/Total Number in Population, PET metric Temporal (amyloid plaque load; 125 mg twice daily 12 weeks): 1/7 | Percentage reduction in global cortical RPM2-BPND, individual responders (amyloid plaque load; 3 responders in the 40 mg dose group, 12 weeks): −11.6% and −11.9% and −40.5% | Number of Responders/Total Number in Population, PET metric Cingulate Posterior (amyloid plaque load; All, 12 weeks): 2/15 | Number of Responders/Total Number in Population, PET metric Frontal (amyloid plaque load; All, 12 weeks): 4/15 | Number of Responders/Total Number in Population, PET metric Global (amyloid plaque load; All, 12 weeks): 4/15 | Number of Responders/Total Number in Population, PET metric Med Temp Lobe (amyloid plaque load; All, 12 weeks): 6/15 | Number of Responders/Total Number in Population, PET metric Parietal (amyloid plaque load; All, 12 weeks): 3/15 | Number of Responders/Total Number in Population, PET metric Temporal (amyloid plaque load; All, 12 weeks): 3/15 | Percentage reduction in global cortical RPM2-BPND, individual responder (amyloid plaque load; one responder in the 125 mg dose group, 12 weeks): −7.7% | correlation between plasma drug concentration and increases in CSF Aβ 38/40/42 levels [1]: statistically significant correlation | CSF levels of butylcholinesterase (butylcholinesterase): no change | EEG (synaptic function): potential positive pharmacodynamics effect
